The subject of one data set is HBEC30KT cells. In words: MTS cell viability assay. In kind it is cell-based, human. As to the method: (§1) After confirming the binding and specificity of the PPS1 on HCC4017 lung cancer cells, whether this compound has any biological effects on HCC4017 lung cancer cells was assayed. The gold standard cell viability (MTS) assay was used. HCC4017 cells and HBEC30kt and HBEC3kt cells were grown in 96 well plates on day 1, then treated by serial dilution of PPS1 and control compound C462 on day 2, and the viable cell count was measured using MTS reagent on day 3. […] On one of the repetitive experiments of this assay, Cystinylated-PPS1 compound was included (FIG. 6A). This was the intermediate compound used to attach the FITC-malemide for binding assays described previously. […] The only difference between this Cystinylated-PPS1 and the original PPS1 compound was just a single cysteine amino acid at the C-terminal. […]
(§2) A homo-dimeric version of PPS1 was synthesized. […] The resulting dimeric version of the PPS1 compound, PPS1D1 (FIG. 6C), and the analogous dimeric versions of scrambled PC2, PC2D1 (FIG. 6E), and control compound C462, PC462D1 (FIG. 82), were then evaluated for activity. […] As described above, HCC4017 cells and HBEC30kt and HBEC3kt cells were grown in 96 well plates on day 1, treated serial dilutions of PPS1, PPS1D1, C462 and C462D1 on day 2, and viable cell count was measured using MTS reagent on day 3. […]

A further data set deals with HBEC3kt cells. In words: MTS cell viability assay. The class given is cell-based, human. To be noted: serial dilutions. The method, then: as §1, §2
For orientation: Tetrazolium dyes change colour on reduction, which living cells bring about.

The test system of data set [1] is HCC4017 cells. Kind of data set: FACS binding assay. On the set-up: species or system human. As to the method: FACS binding assays were conducted to further quantify the binding event of the PPS1 monomer and PPS1D1 dimer.
For orientation: In flow cytometry, cells or beads pass a laser one at a time.

The test system of data set [2] is HCC4017 cells. Kind of data set: MTS cell viability assay. The class given is cell-based, human. As to the method: After confirming the binding and specificity of the PPS1 on HCC4017 lung cancer cells, whether this compound has any biological effects on HCC4017 lung cancer cells was assayed. The gold standard cell viability (MTS) assay was used. […] On one of the repetitive experiments of this assay, Cystinylated-PPS1 compound was included (FIG. 6A). This was the intermediate compound used to attach the FITC-malemide for binding assays described previously. […] The only difference between this Cystinylated-PPS1 and the original PPS1 compound was just a single cysteine amino acid at the C-terminal. It was difficult to rationalize having a single amino acid residue at the terminus of the sequence causing a large difference of activity, other possibilities were considered. Cysteine has sulfur (—SH) group on the side chain and two of these can easily form disulfide bonds. […]
as §2

Usually pKd stands for the negative decadic logarithm of the Kd, by convention in mol/L. Usually pIC50 stands for the IC50 on a negative log10 scale, so that one unit is a factor of ten. Lower therefore signals a high IC50.

pIC50, pKd: −log10 of the molar value. “Also recorded” adds a separate entry of the source. Positions of bridges follow the written chain, without caps; N, C: chain ends. Non-standard residues stand in square brackets, D forms with d. Residues, ends and D or L forms follow the SMILES beside them. Chains are numbered I, II in the order given. Gly(N-piperonyl) = O=C(O)CNCc1ccc2c(c1)OCO2; N(4-MeOBn)Gly = COc1ccc(CNCC(=O)O)cc1; Nrpe = C[C@@H](NCC(=O)O)c1ccccc1; Nlys = NCCCCNCC(=O)O

Protocol for H460 cells: Before moving to animal studies with PPS1D1, comprehensive validation of cytotoxic effect of PPS1D1 on H460 was performed (Fig: 13). The PS expression levels of H460 using FITC-Annexin V staining detected by FACS was checked. […] A magnetic bead pull down, cell proliferation assay, and flow cytometry were performed on the H460 cell line. PPS1D1 coated magnetic beads were incubated with the H460 cell line for 30 minutes. The supernatant was removed by immobilizing beads on side of the tube with a magnet. The number of cells bound to beads were counted with a hemocytometer. […] Cell proliferation assays on a H460 cell line were performed by treating them with PPS1D1, PPS1, and the control compound, PC462D1. […] Binding and cytotoxicity of fluoresceinated PPS1D1 was examined using flow cytometry. Efficiency of PPS1D1 cytotoxicity on H460 cancer cells at different concentrations with 1 hour incubation with PPS1D1 was examined. Assays were performed to determine whether there were cells that were double positive for FITC (bound to PPS1D1) and PI, to evaluate cell viability. […]
Experimental procedure 10: MTS viability assay on H460 cells. […] On day 5, 20 μl of CellTiter 96® AQueous One Solution Cell Proliferation Assay (Promega, Wis.) was added to each well and absorbance was measured at 490 nm using a plate reader 2 hours after treatment.

On to `COc1ccc(CN(CC(=O)N(CCCCN)CC(=O)N[C@@H](CCCCN)C(=O)N[C@H](CCCCN)C(=O)N[C@@H](CCSC)C(=O)NCCCC[C@H](NC(=O)[C@H](CCSC)NC(=O)[C@@H](CCCCN)NC(=O)[C@H](CCCCN)NC(=O)CN(CCCCN)C(=O)CN(Cc2ccc(OC)cc2)C(=O)CN(C(=O)CN(Cc2ccc3c(c2)OCO3)C(=O)CN[C@H](C)c2ccccc2)[C@H](C)c2ccccc2)C(N)=O)C(=O)CN(C(=O)CN(Cc2ccc3c(c2)OCO3)C(=O)CN[C@H](C)c2ccccc2)[C@H](C)c2ccccc2)cc1` [PPS1D1] (I: H-[Nrpe][Gly(N-piperonyl)][Nrpe][N(4-MeOBn)Gly][Nlys]K[dK]MK-NH2 / II: H-[Nrpe][Gly(N-piperonyl)][Nrpe][N(4-MeOBn)Gly][Nlys]K[dK]M; amide I:9-II:C; N-terminus assumed), for which, in the data set with H460 cells (MTS / cell proliferation, increasing concentrations), the “effect on H460 cells” value is reported as “very potent in inhibiting growth”. The “concentration at which most cytotoxicity was seen” value in the data set on H460 cells (cell proliferation assay, H460) was at least 10 µM. Moreover, the “effect on normal HBEC30KT cells” value with HBEC30KT cells (1 and 20 μM) is “no effect”. Moreover, the “activity on normal HBEC30KT cells” value in the data set with HBEC30KT cells (serial dilutions) is recorded as “did not have any activity; also recorded: no cytotoxicity”. The “activity on normal HBEC3kt cells” value with HBEC3kt cells is listed as “did not have any activity”. In addition, in the data set with HCC4017 cells [1], the “improvement of binding of dimeric version over PPS1” value was “about 175 fold”. The pKd with HCC4017 cells [1] (FACS) is 7.10. Also, the “activity at different times post treatment” value in the data set on HCC4017 cells [2] (HCC4017, tested at 6, 12 and 24 hours post treatment) is listed as “somewhat similar”. In addition, the pIC50 in the data set with HCC4017 cells [2] (MTS, HCC4017) is around 5.00.

The values above are taken from US10849875B2, “Cancer specific lipid targeted peptidomimetics” (University of Houston System, priority 2015, dated 2020).
